Source: PubChem BioAssay AID2060908 (Molecular Pharmacology Branch, DTP, NCI, 2025)

Tested on: 186277-243-T-J2-PDC complex spheroids, viability
Assay: Anticancer human tumor 186277-243-T-J2-PDC patient-derived colon adenocarcinoma cell line growth inhibition [RAS]
Settings: for IC50: curve of first compound; for viability, T/C: stronger effect = lower value
How it was run: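 Tumour cells grown as complex spheroids with HUVEC endothelial cells and mesenchymal stem cells, treated with RAS pathway inhibitor combinations. Each agent spans half-log steps from near clinical Cmax, or 10 microM where Cmax is unknown.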

[1] = second compound 0.000949 µM, first compound 0.0316 µM
[2] = second compound 0.000949 µM, first compound 0.1 µM
[3] = second compound 0.000949 µM, first compound 0.316 µM
[4] = second compound 0.000949 µM, first compound 1 µM
[5] = second compound 0.003 µM, first compound 0.0316 µM
[6] = second compound 0.003 µM, first compound 0.1 µM
[7] = second compound 0.003 µM, first compound 0.316 µM
[8] = second compound 0.003 µM, first compound 1 µM
[9] = second compound 0.00949 µM, first compound 0.0316 µM
[10] = second compound 0.00949 µM, first compound 0.1 µM
[11] = second compound 0.00949 µM, first compound 0.316 µM
[12] = second compound 0.00949 µM, first compound 1 µM
[13] = second compound 0.03 µM, first compound 0.0316 µM
[14] = second compound 0.03 µM, first compound 0.1 µM
[15] = second compound 0.03 µM, first compound 0.316 µM
[16] = second compound 0.03 µM, first compound 1 µM
[17] = second compound 0.0949 µM, first compound 0.0316 µM
[18] = second compound 0.0949 µM, first compound 0.1 µM
[19] = second compound 0.0949 µM, first compound 0.316 µM
[20] = second compound 0.0949 µM, first compound 1 µM
[21] = second compound 0.3 µM, first compound 0.0316 µM
[22] = second compound 0.3 µM, first compound 0.1 µM
[23] = second compound 0.3 µM, first compound 0.316 µM
[24] = second compound 0.3 µM, first compound 1 µM
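Further: spheroids exposed to compounds for 7 days before viability read.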

CC(Nc1ccc2c(c1)OCCn1cc(N3C(=O)OCC3C(F)F)nc1-2)C(N)=O (centres undefined) + CCn1c(-c2cccnc2C(C)OC)c2c3cc(ccc31)N1CCOC(CC(NC(=O)C(C(C)C)N(C)C(=O)C3(F)CCN(C(=O)C#CC(C)(C)N(C)C)CC3)C(=O)N3CCCC(N3)C(=O)OCC(C)(C)C2)C1
IC50 (second compound 0.000949 µM): 5910 nM
IC50 (second compound 0.003 µM): 5850 nM
IC50 (second compound 0.00949 µM): 5630 nM
IC50 (second compound 0.03 µM): 5690 nM
IC50 (second compound 0.0949 µM): 2560 nM
IC50 (second compound 0.3 µM): 317 nM
viability, T/C [1]: 108%
viability, T/C [2]: 97.7%
viability, T/C [3]: 70.5%
viability, T/C [4]: 49.3%
viability, T/C (second compound 0.000949 µM, first compound 3.16 µM): 96.2%
viability, T/C (second compound 0.000949 µM, first compound 10 µM): 21.1%
viability, T/C [5]: 95.1%
viability, T/C [6]: 90.1%
viability, T/C [7]: 66.2%
viability, T/C [8]: 55.3%
viability, T/C (second compound 0.003 µM, first compound 3.16 µM): 105%
viability, T/C (second compound 0.003 µM, first compound 10 µM): 21.8%
viability, T/C [9]: 78.8%
viability, T/C [10]: 94%
viability, T/C [11]: 74.3%
viability, T/C [12]: 52.1%
viability, T/C (second compound 0.00949 µM, first compound 3.16 µM): 102%
viability, T/C (second compound 0.00949 µM, first compound 10 µM): 19.8%
viability, T/C [13]: 105%
viability, T/C [14]: 91.7%
viability, T/C [15]: 65.3%
viability, T/C [16]: 48%
viability, T/C (second compound 0.03 µM, first compound 3.16 µM): 108%
viability, T/C (second compound 0.03 µM, first compound 10 µM): 17.6%
viability, T/C [17]: 102%
viability, T/C [18]: 91.9%
viability, T/C [19]: 59.2%
viability, T/C [20]: 38.5%
viability, T/C (second compound 0.0949 µM, first compound 3.16 µM): 97.8%
viability, T/C (second compound 0.0949 µM, first compound 10 µM): 12.3%
viability, T/C [21]: 96.1%
viability, T/C [22]: 66.4%
viability, T/C [23]: 47.1%
viability, T/C [24]: 25.4%
viability, T/C (second compound 0.3 µM, first compound 3.16 µM): 86.4%
viability, T/C (second compound 0.3 µM, first compound 10 µM): 7.8%

O=C(c1ccc(F)c(F)c1Nc1ccc(I)cc1F)N1CC(O)([C@@H]2CCCCN2)C1 + CCn1c(-c2cccnc2C(C)OC)c2c3cc(ccc31)N1CCOC(CC(NC(=O)C(C(C)C)N(C)C(=O)C3(F)CCN(C(=O)C#CC(C)(C)N(C)C)CC3)C(=O)N3CCCC(N3)C(=O)OCC(C)(C)C2)C1
IC50 (second compound 0.000949 µM): 96.5 nM
IC50 (second compound 0.003 µM): 91.5 nM
IC50 (second compound 0.00949 µM): 86.5 nM
IC50 (second compound 0.03 µM): 90.9 nM
IC50 (second compound 0.0949 µM): 74.2 nM
IC50 (second compound 0.3 µM): 54 nM
viability, T/C (second compound 0.000949 µM, first compound 0.00316 µM): 98.9%
viability, T/C (second compound 0.000949 µM, first compound 0.01 µM): 102%
viability, T/C [1]: 99.6%
viability, T/C [2]: 48.2%
viability, T/C [3]: 9.52%
viability, T/C [4]: 4.41%
viability, T/C (second compound 0.003 µM, first compound 0.00316 µM): 82.9%
viability, T/C (second compound 0.003 µM, first compound 0.01 µM): 94.6%
viability, T/C [5]: 87.5%
viability, T/C [6]: 46.5%
viability, T/C [7]: 10.4%
viability, T/C [8]: 3.64%
viability, T/C (second compound 0.00949 µM, first compound 0.00316 µM): 91.7%
viability, T/C (second compound 0.00949 µM, first compound 0.01 µM): 105%
viability, T/C [9]: 89.4%
viability, T/C [10]: 44.2%
viability, T/C [11]: 9.08%
viability, T/C [12]: 4.42%
viability, T/C (second compound 0.03 µM, first compound 0.00316 µM): 100%
viability, T/C (second compound 0.03 µM, first compound 0.01 µM): 93.9%
viability, T/C [13]: 98.9%
viability, T/C [14]: 45.7%
viability, T/C [15]: 9.74%
viability, T/C [16]: 4.04%
viability, T/C (second compound 0.0949 µM, first compound 0.00316 µM): 121%
viability, T/C (second compound 0.0949 µM, first compound 0.01 µM): 114%
viability, T/C [17]: 86.9%
viability, T/C [18]: 37.3%
viability, T/C [19]: 9.15%
viability, T/C [20]: 3.51%
viability, T/C (second compound 0.3 µM, first compound 0.00316 µM): 119%
viability, T/C (second compound 0.3 µM, first compound 0.01 µM): 101%
viability, T/C [21]: 72.7%
viability, T/C [22]: 25.3%
viability, T/C [23]: 6.5%
viability, T/C [24]: 2.7%
